The source of these data is ChEMBL document CHEMBL1133403 (Bioorg Med Chem Lett, 2000).

Activity calls are given as the source filed them. The rule behind the calls is not given here.

The target of test [1] is T1, Progesterone receptor (Homo sapiens, UniProt P06401).
T1 sequence (P06401 whole entry): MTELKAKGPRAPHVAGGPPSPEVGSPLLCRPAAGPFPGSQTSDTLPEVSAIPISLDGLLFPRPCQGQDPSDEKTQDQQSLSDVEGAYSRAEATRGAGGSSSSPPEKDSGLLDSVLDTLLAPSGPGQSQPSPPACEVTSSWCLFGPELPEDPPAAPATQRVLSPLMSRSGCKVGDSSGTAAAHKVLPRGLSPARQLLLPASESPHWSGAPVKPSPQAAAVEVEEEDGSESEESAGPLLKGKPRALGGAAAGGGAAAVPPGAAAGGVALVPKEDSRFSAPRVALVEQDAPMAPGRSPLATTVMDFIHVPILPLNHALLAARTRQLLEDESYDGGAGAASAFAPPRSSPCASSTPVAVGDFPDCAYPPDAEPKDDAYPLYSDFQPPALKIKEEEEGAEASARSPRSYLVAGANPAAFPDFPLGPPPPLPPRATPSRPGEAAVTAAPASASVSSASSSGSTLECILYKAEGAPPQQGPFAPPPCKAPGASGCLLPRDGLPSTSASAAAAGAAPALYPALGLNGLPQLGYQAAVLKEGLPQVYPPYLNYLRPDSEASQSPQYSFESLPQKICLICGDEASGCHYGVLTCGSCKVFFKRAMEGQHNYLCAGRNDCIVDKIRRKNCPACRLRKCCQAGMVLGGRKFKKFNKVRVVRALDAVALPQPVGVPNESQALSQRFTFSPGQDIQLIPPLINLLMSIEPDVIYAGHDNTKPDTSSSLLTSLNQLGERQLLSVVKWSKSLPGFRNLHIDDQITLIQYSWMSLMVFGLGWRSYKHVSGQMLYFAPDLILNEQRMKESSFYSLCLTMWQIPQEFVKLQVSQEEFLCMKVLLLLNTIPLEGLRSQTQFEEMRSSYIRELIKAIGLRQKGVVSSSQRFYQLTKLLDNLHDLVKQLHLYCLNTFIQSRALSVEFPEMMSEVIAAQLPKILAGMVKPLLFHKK
Nature of the test: Human progesterone receptor (hPR) agonist activity in T47D human breast cancer cell line. The format is functional, cell-based.

Test [2] has as its target T1, Progesterone receptor. As to the kind of experiment: Antagonist activity against human progesterone receptor (hPR) in T47D human breast cancer cell line. In kind it is functional, cell-based.
In the next test the target is T2, Androgen receptor (Homo sapiens, UniProt P10275).
T2 sequence (P10275 whole entry): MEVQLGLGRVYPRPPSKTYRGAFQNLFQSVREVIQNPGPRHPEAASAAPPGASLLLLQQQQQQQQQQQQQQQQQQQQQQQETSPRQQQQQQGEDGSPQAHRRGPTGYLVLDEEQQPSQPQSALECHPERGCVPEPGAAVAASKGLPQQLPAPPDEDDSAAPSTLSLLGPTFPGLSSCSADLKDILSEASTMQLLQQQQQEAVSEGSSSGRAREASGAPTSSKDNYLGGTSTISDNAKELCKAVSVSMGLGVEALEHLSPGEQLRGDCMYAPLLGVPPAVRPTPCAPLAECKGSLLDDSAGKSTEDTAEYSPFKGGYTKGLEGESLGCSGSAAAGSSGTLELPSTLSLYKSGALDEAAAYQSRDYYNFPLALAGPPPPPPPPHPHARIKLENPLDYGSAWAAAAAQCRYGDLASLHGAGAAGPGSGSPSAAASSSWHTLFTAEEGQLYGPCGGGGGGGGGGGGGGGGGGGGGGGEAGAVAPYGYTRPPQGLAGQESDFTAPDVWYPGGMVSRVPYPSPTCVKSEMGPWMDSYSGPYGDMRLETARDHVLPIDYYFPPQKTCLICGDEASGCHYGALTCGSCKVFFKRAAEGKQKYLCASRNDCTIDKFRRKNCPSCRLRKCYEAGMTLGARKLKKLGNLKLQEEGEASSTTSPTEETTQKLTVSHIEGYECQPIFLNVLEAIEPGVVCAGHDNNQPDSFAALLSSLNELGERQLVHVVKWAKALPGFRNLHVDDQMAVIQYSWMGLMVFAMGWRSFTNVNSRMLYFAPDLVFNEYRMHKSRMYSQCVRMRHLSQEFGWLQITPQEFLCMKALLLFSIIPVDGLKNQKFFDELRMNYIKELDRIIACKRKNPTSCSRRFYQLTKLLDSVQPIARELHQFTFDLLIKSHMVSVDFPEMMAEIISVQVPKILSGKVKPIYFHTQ
As to the kind of experiment: Cross-reactivity as binding to human androgen receptor (hAR). In kind it is functional.

The target in test [3] is T3, Glucocorticoid receptor (Homo sapiens) (UniProt P04150).
T3 sequence (whole entry): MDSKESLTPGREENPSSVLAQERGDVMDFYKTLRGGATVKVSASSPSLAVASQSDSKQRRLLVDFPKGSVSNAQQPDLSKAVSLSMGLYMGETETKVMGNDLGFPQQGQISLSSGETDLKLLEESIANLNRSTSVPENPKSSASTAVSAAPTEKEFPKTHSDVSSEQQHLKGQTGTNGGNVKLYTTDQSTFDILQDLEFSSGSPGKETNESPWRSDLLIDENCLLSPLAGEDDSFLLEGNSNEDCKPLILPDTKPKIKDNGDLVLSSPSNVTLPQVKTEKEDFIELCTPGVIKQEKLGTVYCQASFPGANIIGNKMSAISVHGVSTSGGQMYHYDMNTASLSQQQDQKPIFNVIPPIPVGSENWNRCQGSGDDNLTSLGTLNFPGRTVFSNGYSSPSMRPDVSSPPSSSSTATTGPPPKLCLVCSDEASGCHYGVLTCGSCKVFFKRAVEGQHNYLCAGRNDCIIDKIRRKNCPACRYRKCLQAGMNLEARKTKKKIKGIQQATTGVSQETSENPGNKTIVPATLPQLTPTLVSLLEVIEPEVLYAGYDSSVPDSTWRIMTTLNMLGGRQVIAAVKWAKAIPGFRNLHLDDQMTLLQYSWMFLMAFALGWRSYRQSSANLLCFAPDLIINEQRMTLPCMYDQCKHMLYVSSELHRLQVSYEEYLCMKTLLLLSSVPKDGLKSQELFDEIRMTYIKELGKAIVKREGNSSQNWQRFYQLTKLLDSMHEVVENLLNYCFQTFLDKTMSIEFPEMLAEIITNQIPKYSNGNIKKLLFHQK
Nature of the test: Percent inhibition of glucocorticoid receptor transcriptional activity at Dexamethasone EC50; NA=not active. The format is functional.

In turn, `CC1=CC(C)(C)Nc2ccc(-c3ccc([N+](=O)[O-])s3)cc21` showed an EC50 at Progesterone receptor [1] of 1020 nM. The results for the IC50 on Progesterone receptor [2] and on Androgen receptor were 70 nM and 1460 nM, respectively. For the same compound, the Efficacy entry in test [3] is “inactive”.

As usually defined, the EC50 is the concentration giving half of the maximal effect. Low values mean greater potency, high ones weaker potency. As usually defined, the IC50 is the midpoint of a concentration-inhibition curve.
